Experimental data published in US20240269106A1, “SMALL MOLECULE MODULATOR TARGETING A RARE HISTONE MODIFICATION REGULATING ADIPOGENESIS AND PHARMACEUTICAL FORMULATION THEREOF” (COUNCIL OF SCIENTIFIC AND INDUSTRIAL RESEARCH AN INDIAN …, priority 2021, published 2024).

Assays:
full length p300 [1] = molecular target: T1, full length p300 (Homo sapiens, UniProt Q09472); assay: In vitro p300 acetylation assay (immunoblot); assay type: biochemical; details: for effect on p300 catalysed acetyltransferase activity: FIG. 2i, immunoblot
T1 construct: Purified full length p300 protein was used for in vitro acetylation/butyrylation assay
Experimental: (§1) Purified full length p300 protein was used for in vitro acetylation/butyrylation assay in presence/absence of different compounds. Acylation reactions were performed in reaction buffer (25 mM Tris-HCl PH 7.5, 100 mM NaCl, 0.1 mM EDTA, 1 mM DTT, 10% Glycerol, 1×PIC) with 100 ng/ml TSA, and 50 μM Butyryl-CoA/Acetyl COA. Xenopus histone H3 (500 ng) was used as the substrate and p300 (10,000 cpm activity) was used as the enzyme. Reactions were incubated in presence or absence of small molecule modulators (including compound of Formula I) for 10 minutes at 30° C., followed by initiation of the acetylation/butyrylation reaction by the addition of acetyl/butyryl CoA. After a further 10 minutes, reactions were stopped by addition of Laemmli buffer and samples were used for immunoblotting.
(§2) Immunoblotting with antibodies against acetylated H3K18, acetylated H3K9 and pan-butyryl lysine was performed to check for the relative inhibition of acetyl transferase and butyryl transferase activities of full length p300 by garcinol, isogarcinol and its different derivatives including compound of Formula I at different concentrations. FIG. 2i depicts the effect of garcinol, isogarcinol and two of its derivatives LTK-13 and LTK-14 on p300 catalysed acetyltransferase activity. […] FIG. 2ii depicts the effect of LTK-14 on acetylation and butyrylation catalysed by p300. Lane 1, enzyme alone; Lane 2-4, enzyme+LTK-14 at concentrations 500 nM, 2 μM and 10 μM, respectively. LTK-14 could inhibit acetylation at 10 μM concentration while butyrylation was inhibited at 2 μM concentration. FIG. 2iii depicts the effect of compound x on acetylation and butyrylation catalysed by p300. Lane 1, enzyme alone; Lane 2, enzyme+DMSO; Lane 3-6, enzyme+compound x at concentrations 10, 15, 20 and 25 μM, respectively.

full length p300 [2] = molecular target: T1, full length p300; assay: In vitro p300 butyrylation assay (immunoblot); assay type: biochemical; details: for effect on p300 catalysed butyrylation: FIG. 2 legend
Experimental: as §1, §2

[3] = tested at 500 nM, 2 μM and 10 μM

T1 sequence (Q09472 whole entry, species assumed): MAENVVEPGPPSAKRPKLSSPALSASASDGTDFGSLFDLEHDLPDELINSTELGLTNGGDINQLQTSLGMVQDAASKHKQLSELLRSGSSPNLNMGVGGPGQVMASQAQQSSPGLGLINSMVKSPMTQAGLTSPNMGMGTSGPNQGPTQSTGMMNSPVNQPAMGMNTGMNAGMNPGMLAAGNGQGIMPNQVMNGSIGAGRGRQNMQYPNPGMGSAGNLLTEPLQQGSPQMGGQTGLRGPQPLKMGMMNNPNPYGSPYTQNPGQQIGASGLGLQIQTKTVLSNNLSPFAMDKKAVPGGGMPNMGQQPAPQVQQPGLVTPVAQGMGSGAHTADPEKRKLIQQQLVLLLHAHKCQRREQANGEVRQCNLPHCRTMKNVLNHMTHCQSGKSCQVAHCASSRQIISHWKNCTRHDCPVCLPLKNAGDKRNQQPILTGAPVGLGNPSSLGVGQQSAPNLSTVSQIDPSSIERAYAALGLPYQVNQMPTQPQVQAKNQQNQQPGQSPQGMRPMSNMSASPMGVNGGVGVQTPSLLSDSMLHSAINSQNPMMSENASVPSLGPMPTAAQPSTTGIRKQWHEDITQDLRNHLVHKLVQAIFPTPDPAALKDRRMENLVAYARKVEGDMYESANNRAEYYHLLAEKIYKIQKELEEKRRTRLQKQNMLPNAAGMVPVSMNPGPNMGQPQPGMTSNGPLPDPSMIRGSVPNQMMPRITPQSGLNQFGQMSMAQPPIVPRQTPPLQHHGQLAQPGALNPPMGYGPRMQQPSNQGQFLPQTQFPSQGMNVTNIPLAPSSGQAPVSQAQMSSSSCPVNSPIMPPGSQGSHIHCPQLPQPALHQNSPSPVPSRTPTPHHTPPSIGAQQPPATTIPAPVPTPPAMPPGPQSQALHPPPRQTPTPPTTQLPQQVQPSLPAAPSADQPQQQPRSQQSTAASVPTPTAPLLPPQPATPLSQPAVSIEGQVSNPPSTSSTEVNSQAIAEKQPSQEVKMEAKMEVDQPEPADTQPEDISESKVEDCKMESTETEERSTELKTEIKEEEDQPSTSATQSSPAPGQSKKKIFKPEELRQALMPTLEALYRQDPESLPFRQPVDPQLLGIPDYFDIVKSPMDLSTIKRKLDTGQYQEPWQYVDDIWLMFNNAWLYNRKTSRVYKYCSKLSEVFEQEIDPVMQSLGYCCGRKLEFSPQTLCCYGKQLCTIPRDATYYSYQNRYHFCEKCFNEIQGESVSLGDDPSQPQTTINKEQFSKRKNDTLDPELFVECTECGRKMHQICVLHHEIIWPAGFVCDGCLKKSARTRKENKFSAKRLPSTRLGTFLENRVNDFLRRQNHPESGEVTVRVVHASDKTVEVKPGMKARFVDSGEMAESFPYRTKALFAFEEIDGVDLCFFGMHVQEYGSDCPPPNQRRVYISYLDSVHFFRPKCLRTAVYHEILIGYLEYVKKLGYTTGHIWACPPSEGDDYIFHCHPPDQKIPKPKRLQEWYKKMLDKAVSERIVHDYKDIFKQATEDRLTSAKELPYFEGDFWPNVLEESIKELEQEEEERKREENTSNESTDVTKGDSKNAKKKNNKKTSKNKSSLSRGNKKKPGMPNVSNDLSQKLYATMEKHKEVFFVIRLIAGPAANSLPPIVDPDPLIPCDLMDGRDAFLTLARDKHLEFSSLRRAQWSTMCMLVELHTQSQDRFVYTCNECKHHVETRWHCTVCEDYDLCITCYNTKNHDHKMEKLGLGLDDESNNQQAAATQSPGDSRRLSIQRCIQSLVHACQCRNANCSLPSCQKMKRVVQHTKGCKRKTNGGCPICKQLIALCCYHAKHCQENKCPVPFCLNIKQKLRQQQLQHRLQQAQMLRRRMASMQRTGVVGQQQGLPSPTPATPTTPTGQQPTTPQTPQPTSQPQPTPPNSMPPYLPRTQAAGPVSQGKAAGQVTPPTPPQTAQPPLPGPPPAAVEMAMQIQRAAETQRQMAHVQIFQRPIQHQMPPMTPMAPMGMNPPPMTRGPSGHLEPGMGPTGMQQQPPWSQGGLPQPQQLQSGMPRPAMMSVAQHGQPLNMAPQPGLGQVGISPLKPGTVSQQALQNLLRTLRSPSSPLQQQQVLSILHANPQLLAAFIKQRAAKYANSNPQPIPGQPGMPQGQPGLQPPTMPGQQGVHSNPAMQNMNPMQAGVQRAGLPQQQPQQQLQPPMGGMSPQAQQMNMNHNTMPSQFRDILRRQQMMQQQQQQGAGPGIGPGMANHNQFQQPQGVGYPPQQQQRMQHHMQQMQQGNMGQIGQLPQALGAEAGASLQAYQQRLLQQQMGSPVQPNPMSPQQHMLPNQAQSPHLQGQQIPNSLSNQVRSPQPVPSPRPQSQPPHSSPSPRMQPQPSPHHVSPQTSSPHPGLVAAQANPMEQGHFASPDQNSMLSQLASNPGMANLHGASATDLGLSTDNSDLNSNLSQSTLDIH

SMILES | effect on p300 catalysed acetyltransferase activity (full length p300 [1]) | effect on p300 catalysed butyrylation (full length p300 [2]) | concentration at which acetylation was inhibited (full length p300 [1]; [3]) [µM] | concentration at which butyrylation was inhibited (full length p300 [2]; [3]) [µM]
CC(C)=CC[C@H]1C[C@@]23C[C@@H](CC=C(C)C)C(C)(C)[C@@](CC=C(C)C)(C(=O)C(C(=O)c4ccc(O)c(O)c4)=C2OC1(C)C)C3=O [isogarcinol] | showed inhibitory effect | can inhibit | – | –
COc1ccc(C(=O)C2=C3OC(C)(C)[C@@H](CC=C(C)C)C[C@@]34C[C@@H](CC=C(C)C)C(C)(C)[C@@](CC=C(C)C)(C2=O)C4=O)cc1O [LTK-14] | showed inhibitory effect | can inhibit | 10 | 2
